From US12715851B2, “4′-substituted analogues of fisetin and their use in the treatment of cancer” (Stellenbosch University, priority 2020, dated 2026)

Columns and labels:
A549 cells = experiment: Trypan blue cell exclusion assay, cell proliferation and death; assay type: cell-based; settings: Homo sapiens, A549, 48 h, read-out: IC50 concentration
Description: (§1) To evaluate the effect of Fisetin analogues 3a, 3c and 3e on cell proliferation and death of human lung cancer cells, trypan blue cell exclusion assays were performed. A549 and H1299 cancer cells were treated with different concentrations of three selected Fisetin analogues for 48 h. The Fisetin analogues decreased the viability of cells and caused cell death in both the cell lines in a concentration dependent fashion. A549 and H1299 cells were treated with 5, 10 and 20 μM of Fisetin analogues for 48 h. All three analogues decreased cell proliferation and induced cell death.

H1299 lung cancer cells = experiment: as above; assay type: cell-based; settings: Homo sapiens, NCI-H1299, H1299, 48 h, read-out: IC50 concentration
Description: as §1

H1299 cells = experiment: Western blot of signalling, cell cycle and apoptosis markers; assay type: cell-based, human
Text: Similarly, in H1299 cells analogue 3a induced a 11.7 to 14.9% cell death (FIG. 4D right) compared to 3.8% in control cells. Analogue 3c (FIG. 4E right) and analogue 3e (FIG. 4F right) induced cell death of 8.2 to 15.1% and 8.8 to 16.6% respectively. For western blot experiments, two concentrations were used, i.e. the IC50 concentration and the next higher concentration utilized for cell proliferation for each cell line.
In H1299 cells (FIG. 4H), the higher concentrations of all three Fisetin analogues decreased the expression of pErk1/2. […]
The decreased expression of these proteins explains the decreased cell proliferation in both A549 and H1299 cells. […] Consistent with A549 data, all three the Fisetin analogues decreased the expression of anti-apoptotic protein Bcl-2 at both the concentrations. In H1299 cells, all the analogues increased cleaved Caspase-3 compared to control untreated cells. Thus, modulation of apoptosis regulatory proteins has caused apoptosis in both A549 and H1299 cells by the tested Fisetin analogues.

SOD = experiment: Hepatotoxicity: specific activity of SOD; assay type: in vivo, swiss albino mice; settings: liver of treated mice
Description: (§2) Hepatotoxicity is considered to be one of the major challenges for drug development schemes. The liver is the primary organ for the metabolism or biotransformation of a given drug. To assess the hepatotoxicity of these compounds, the effects of Fisetin and analogue 3c on various hepatic enzymes was assessed.
(§3) A lipid peroxidation assay was performed on microsomal liver fraction and determined in terms of TBARS formation. […] The modulatory effects of Fisetin and analogue 3c were determined on the specific activities of cytochrome b5 reductase (Cytb5R) and cytochrome P450 reductase (CytP450R), phase I enzyme of xenobiotic metabolism. Fisetin and analogue 3c caused reduction in the specific activity of cytochrome b5 reductase. Fisetin decreased Cytb5R specific activity by 66% whereas analogue 3c (50 mg/kg) caused a 36% reduction in specific activity (FIG. 7F). An increase in specific activity of CytP450R by Fisetin and analogue 3c was observed. Fisetin and analogue 3c (50 mg/kg) increased the specific activity by 15% and 13%, respectively (FIG. 7G). Next, the specific activities of phase II enzymes, glutathione S-transferase (GST) and reduced glutathione (GSH) were measured. […] Fisetin and analogue 3c (50 mg/kg) caused a decrease in specific activity of GSH by 34% and 7%, respectively (FIG. 7I). […] These analogues are therefore likely to be effective and safe phytochemicals.

[1] = tested on: cytochrome b5 reductase (Cytb5R); experiment: Hepatotoxicity: specific activity of cytochrome b5 reductase; assay type: in vivo, swiss albino mice; settings: 50 mg/kg orally, two weeks
Description: as §2, §3

[2] = tested on: glutathione S-transferase (GST); experiment: Hepatotoxicity: specific activity of glutathione S-transferase; assay type: in vivo, swiss albino mice; settings: liver of treated mice
Description: as §2, §3

[3] = tested on: reduced glutathione (GSH); experiment: Hepatotoxicity: reduced glutathione; assay type: in vivo, swiss albino mice; settings: 50 mg/kg orally, two weeks
Description: as §2, §3

Q: How did the IC50 (A549 cells) turn out when O=c1c(O)c(-c2ccc(Br)cc2)oc2cc(O)ccc12 [analogue 3c, 4′-Bromo-3,7-dihydroxyflavone] was run?
A: Its IC50 is 12.1 µM.

Q: And the IC50 (H1299 lung cancer cells)?
A: The IC50 was 5.4 µM.

Q: And the Phospho-Cdc-2 expression (H1299 cells; IC50 concentration and 10 μM)?
A: The Phospho-Cdc-2 expression was “higher concentration of analogue 3c and both concentrations of analogue 3e decreased the expression of phospho-Cdc-2”.

Q: And the “Total Cdc-2” value (H1299 cells; IC50 concentration and 10 μM)?
A: Its value is “marginally affected by higher concentration”.

Q: What about the “expression of Bax” value (H1299 cells; IC50 concentration and 10 μM) of the same molecule?
A: The value was “increased the expression of pro-apoptotic protein Bax”.

Q: What about the “expression of Cyclin B1” value (H1299 cells; IC50 concentration and 10 μM) of the same molecule?
A: Its value is “decreased in all treatments, except for the lower concentration of analogue 3c”.

Q: What about the “expression of phospho Akt” value (H1299 cells; IC50 concentration and 10 μM) of the same molecule?
A: The value was “completely undetected”.

Q: What about the “expression of phospho-EGFR” value (H1299 cells; IC50 concentration and 10 μM) of the same molecule?
A: The value was “decreased the expression of both phospho and total EGFR”.

Q: And the “expression of total Akt” value (H1299 cells; IC50 concentration and 10 μM)?
A: Its value is “completely undetected”.

Q: What about the “expression of total EGFR” value (H1299 cells; IC50 concentration and 10 μM) of the same molecule?
A: The value was “decreased the expression of both phospho and total EGFR”.

Q: And the “expression of total Erk1/2” value (H1299 cells; IC50 concentration and 10 μM)?
A: The value was “decreased the expression of total Erk1/2 significantly”.

Q: And the “expression of total Stat-3” value (H1299 cells; higher concentration (10 μM))?
A: Its value is “decreased the expression of total Stat-3 at higher concentrations”.

Q: And the “specific activity of SOD” value (SOD)?
A: Its value is “moderately induced”.

Q: And the “reduction in specific activity of cytochrome b5 reductase” value [1]?
A: The value was 36%.

Q: And the “specific activities of GST compared to the control group” value [2]?
A: Its value is “did not cause significant change”.

Q: And the “decrease in specific activity of GSH” value [3]?
A: Its value is 7%.
